{"source": "paper PMC9460038", "about": "“Antigiardial Activity of Foeniculum vulgare Hexane Extract and Some of Its Constituents” (Plants, 2022)", "origin": "cited, not measured here", "test_system": "multidrug resistant (MDR) clinical isolates of Mycobacterium tuberculosis", "conditions": "three MDR clinical isolates; cited from earlier work", "data": [{"smiles": "CCCCCC/C=C/C=C/C=O", "note": "[Trans, trans-2,4-undecadienal, trans, trans-2,4-undecadienal]", "values": [{"measurement": "MIC", "value": "25 to 50", "unit": "µg/mL"}]}]}
